# Assay results as given in paper PMC10877577 (ACS Chemical Biology, 2024).
# “Also recorded” adds a separate entry of the source. Read-outs that look alike come from different tables or passages of the source.
# How the values were obtained:
# [1] = system: HEK-293T transduced with the aMinoC1 transmembrane receptor; experiment: Flow cytometry of peptide-muIgG2a Fc binding to cells with aMinoC1 transmembrane receptor; assay type: cell-based, human; conditions: GWARA, HWAQA, PWAYS, QWAMM, increasing minocycline, caffeine 100 μM
# Description: Flow cytometry was performed using the MACSQuant Analyzer 10 or MACSQuant X (Miltenyi Biotec). All flow cytometry data was analyzed using FlowJo v.7.6.2 software (Tree Star Inc., Ashland, OR). Cell staining was carried out by incubation with PBS containing the recommended concentration of antibodies at RT for 30 min. PBS washes were carried out between antibody staining. Cell viability was determined using viability dye SYTOX Blue Dead Cell Stain (ThermoFisher) prior to flow cytometric analysis. Cells were first gated for singlet population identified by FSC-H and FSC-A. Next, live cells were identified using a viability dye, followed by gating for target cell populations. The antibodies used in the study are as follows: CD3 PECy7 (Biolegend, 317334), Human CD34 APC-conjugated antibody (R&D system, FAB7227A), Human CD34 Alexa Fluor 488-conjugated antibody (R&D system, FAB7227G), Streptavidin PE (Biolegend, 405204), APC antihuman EGFR antibody (Biolegend, 352905), Alexa Fluor 488 antihuman EGFR antibody (Biolegend, 352907), PE anti-HA.11 Epitope Tag antibody (Biolegend, 901517), Anti-M13-HRP (Sino Biologics, 1197 mm05T-H), Anti-Myc-HRP (Genscript, A00863), and SYTOX Blue Dead Cell Stain (ThermoFisher, S10274).
# [2] = system: MinoCAR-transduced PBMC against SupT1-EGFR+ target cells; assay type: cell-based; conditions: compared to 0 μM minocycline
# Description: Transduced CAR T cells were determined by staining for the transduction marker RQR8 and normalized by the addition of nontransduced T cells. Effector cells were cocultured with 5.0 × 10^4 number of target cells (SupT1-NT, SupT1-EGFR+, SKOV3-mKate) to achieve the desired effector cell to target ratio. […] Cocultures were incubated for 24–72 h at 37 °C and 5% CO2. After incubation, plates were centrifuged at 400g for 5 min, and the supernatant containing secreted cytokines was collected for cytokine analysis. Cells were stained with anti-hCD34-APC and anti-CD3-PeCy7 to differentiate effector T cells and target cells. Cells were washed with 300 μL o PBS and stained with SYTOX Blue Dead Cell Stain dye. The percentage of target cell survival was measured relative to the number of live target cells cocultured with nonspecific CAR T cells or nontransduced PBMCs.
# [3] = system: MinoCAR-transduced PBMC against SupT1-EGFR+ target cells; experiment: Cytokine release of MinoCAR PBMCs; assay type: cell-based, human; conditions: minocycline supplementation, 24 h, 1:2 E/T
# Description: (§1) Transduced CAR T cells were determined by staining for the transduction marker RQR8 and normalized by the addition of nontransduced T cells. Effector cells were cocultured with 5.0 × 10^4 number of target cells (SupT1-NT, SupT1-EGFR+, SKOV3-mKate) to achieve the desired effector cell to target ratio. Where appropriate, minocycline was supplemented as a part of the culture conditions. Cocultures were incubated for 24–72 h at 37 °C and 5% CO2. After incubation, plates were centrifuged at 400g for 5 min, and the supernatant containing secreted cytokines was collected for cytokine analysis. Cells were stained with anti-hCD34-APC and anti-CD3-PeCy7 to differentiate effector T cells and target cells. Cells were washed with 300 μL o PBS and stained with SYTOX Blue Dead Cell Stain dye. The percentage of target cell survival was measured relative to the number of live target cells cocultured with nonspecific CAR T cells or nontransduced PBMCs.
# (§2) IFN-γ, IL2, and IL12 secretion was measured by collecting the supernatant from the respective cell-based assay and frozen at −20 °C prior to analysis by ELISA. IFN-γ, IL2, and IL12 ELISAs were carried out using the Human IFN-γ ELISA MAX Deluxe kit, Human IL2 ELISA MAX Deluxe kit, and Human IL12 (p70) ELISA MAX Deluxe kit in accordance with the manufacturer’s instructions (BioLegend).
# [4] = system: MinoCAR-transduced PBMC against SKOV3 EGFR+ target cells; experiment: Tunability and reversibility assays (Incucyte kinetics of cytotoxicity); assay type: cell-based, human; conditions: minocycline 0 to 10 μM, 1:2 E/T
# Description: EGFR+ SKOV3-mKate cells were seeded at 1.0 × 10^4 cells per well in a TC-treated flat-bottomed 96-well plate. For reversibility experiments, MinoCAR ON–OFF kinetics were tested by preactivating CAR T cells by incubating cells for 2 h on plates precoated with recombinant EGFR (10 μg/mL). CAR T cells were washed using 15 mL of PBS prior to coculture. […] Cells were then washed using 15 mL of PBS prior to coculture. Untreated CAR T cells were used as a control and were directly preceded to coculturing set. […] The Incucyte ZOOM Live-Cell Analysis System was used to carry out image capture at a rate of one image every 1 h for 150 h. […] The image capture rate of each condition was set at 1 image per hour for 72 h.
# Nalm6 EGFR+ tumor = experiment: Xenograft model with NALM6, BLI readout; assay type: in vivo, NSG mice; conditions: minocycline hydrochloride 0.4 mg i.p. every 2–3 days; day 7 to 13 post CAR-T
# Description: All animal studies were carried out in accordance with a UK Home Office-approved project license and were approved by the UCL Biological Services Ethical Review Committee. NSG mice (female, aged 6–10 weeks) were acquired from Charles River Laboratories and raised under pathogen-free conditions. On day 4, 0.5 × 10^6 Nalm6 cells engineered to express EGFR and HA-luciferase were injected intravenously into NSG mice. Tumor engraftment was assessed through bioluminescence imaging, employing the IVIS Spectrum system (PerkinElmer) following intraperitoneal injection of 2 mg D-luciferin. Photon emission from EGFR^+ NALM6-FLuc cells, expressed in photon per second per cm^2 per steradian, was quantified using Living Image software (PerkinElmer). On day 0, mice were randomly assigned to different cohorts prior to intravenous injection of 1 × 10^6 CAR T cells. The experiment was conducted without blinding; however, the use of bioluminescence imaging provides an objective assessment of tumor growth in this model. […] Intraperitoneal injection of 100 μL (0.4 mg) was administered every 2–3 days.
# [5] = system: MinoUniCAR-transduced PBMCs against SupT1-EGFR+ cells; experiment: MinoUniCAR cytotoxicity with EGFR-peptide adaptor; assay type: cell-based, human; conditions: 10 μM minocycline, 24 h, 1:2 E/T
# Description: as §1
# Transduced PBMCs were stained using RQR8 expression and V5 markers. Cells were then normalized to 50% efficiency by diluting with nontransduced T cells. The tumor-targeting adaptor protein (EGFR sdAb) fused to the GWARA peptide was separately expressed by CHO cell transient transfection and purified by His-tag chromatography. […] IFN-γ secretion was measured as described above.
# [6] = system: MyD88/CD40 signaling in transduced PBMCs; experiment: IFN-γ secretion of PBMCs with aMinoC1/GWARA-MyD88/CD40 module; assay type: cell-based, human; conditions: increasing concentrations of minocycline
# Description: as §2
# [7] = system: GWARA-flexi-IL12 secretion from transduced PBMCs; experiment: IL12 secretion assay (KDEL retention system); assay type: cell-based, human; conditions: minocycline up to 2.5 μM
# Description: as §2
# Transduced PBMCs were stained for the independent HA expression marker by using an anti-HA-PE antibody to determine transduction efficiency. Cells were normalized to 60% using nontransduced T cells prior to assay set up. For the assay set up, 0.5 × 10^4 transduced cells were cultured in RPMI (RPMI-1640) supplemented with 10% fetal bovine serum (FBS), 2 mM GlutaMAX, and IL2 at a concentration of 100 UI/mL. […] IL12 ELISA was carried out following manufacturer’s instructions (BioLegend, 431704).
smiles,measurement,setting,value
CN(C)c1ccc(O)c2c1C[C@H]1C[C@H]3[C@H](N(C)C)C(O)=C(C(N)=O)C(=O)[C@@]3(O)C(O)=C1C2=O [minocycline],peptide-muIgG2a Fc binding to membrane-bound aMinoC1 in presence of small molecule,[1],Dose-dependent reduction of peptide-muIgG2a Fc binding
same,peptide-muIgG2a Fc binding to membrane-bound aMinoC1 in presence of small molecule,[1]; listed as Minocycline,concentration-dependent reduction in peptide binding
same,increase in target cell survival,[2]; 24 h,2.5 fold
same,increase in target cell survival,[2]; 72 h,35 fold
same,reduction (minus) of IFN-γ secretion,[3],2.7 fold
same,reduction (minus) of IL2 secretion,[3],1.9 fold
same,SKOV3 target cell killing kinetics,[4],dose-dependent decrease in SKOV3 target cell killing
same,effect of minocycline on MinoCAR efficacy (BLI),Nalm6 EGFR+ tumor,Significant inhibition of MinoCAR; also recorded: significantly reduced MinoCAR efficacy
same,target cell survival,[5],95%
same,decrease of IFN-γ secretion,[6],2 fold
same,IL12 release,"[7]; day 2, aMinoC1-KDEL construct",up to 150 pg/mL
same,IL12 release,"[7]; day 7, aMinoC1-KDEL construct",≤ 2.2 µg/mL
